According to patent US8399676B2, “Piperidine derivatives” (Hoffman-La Roche Inc., priority 2009, dated 2013):
Where a name gives a salt, the structure may show the parent alone.

These compounds were tested against T1, human HSL (Homo sapiens, UniProt Q05469) (assay: Human Hormone-Sensitive Lipase (HSL) enzyme inhibition assay (colorimetric, DMPT substrate)). Conditions: read-out: HSL hum IC50.
T1 construct: generate a full length human HSL ORF with a 3′-His6 tag; His6 (C); made in house; host or cells: High 5 insect cells (baculovirus, pFast-BAC)
T1 sequence (Q05469 1-1076): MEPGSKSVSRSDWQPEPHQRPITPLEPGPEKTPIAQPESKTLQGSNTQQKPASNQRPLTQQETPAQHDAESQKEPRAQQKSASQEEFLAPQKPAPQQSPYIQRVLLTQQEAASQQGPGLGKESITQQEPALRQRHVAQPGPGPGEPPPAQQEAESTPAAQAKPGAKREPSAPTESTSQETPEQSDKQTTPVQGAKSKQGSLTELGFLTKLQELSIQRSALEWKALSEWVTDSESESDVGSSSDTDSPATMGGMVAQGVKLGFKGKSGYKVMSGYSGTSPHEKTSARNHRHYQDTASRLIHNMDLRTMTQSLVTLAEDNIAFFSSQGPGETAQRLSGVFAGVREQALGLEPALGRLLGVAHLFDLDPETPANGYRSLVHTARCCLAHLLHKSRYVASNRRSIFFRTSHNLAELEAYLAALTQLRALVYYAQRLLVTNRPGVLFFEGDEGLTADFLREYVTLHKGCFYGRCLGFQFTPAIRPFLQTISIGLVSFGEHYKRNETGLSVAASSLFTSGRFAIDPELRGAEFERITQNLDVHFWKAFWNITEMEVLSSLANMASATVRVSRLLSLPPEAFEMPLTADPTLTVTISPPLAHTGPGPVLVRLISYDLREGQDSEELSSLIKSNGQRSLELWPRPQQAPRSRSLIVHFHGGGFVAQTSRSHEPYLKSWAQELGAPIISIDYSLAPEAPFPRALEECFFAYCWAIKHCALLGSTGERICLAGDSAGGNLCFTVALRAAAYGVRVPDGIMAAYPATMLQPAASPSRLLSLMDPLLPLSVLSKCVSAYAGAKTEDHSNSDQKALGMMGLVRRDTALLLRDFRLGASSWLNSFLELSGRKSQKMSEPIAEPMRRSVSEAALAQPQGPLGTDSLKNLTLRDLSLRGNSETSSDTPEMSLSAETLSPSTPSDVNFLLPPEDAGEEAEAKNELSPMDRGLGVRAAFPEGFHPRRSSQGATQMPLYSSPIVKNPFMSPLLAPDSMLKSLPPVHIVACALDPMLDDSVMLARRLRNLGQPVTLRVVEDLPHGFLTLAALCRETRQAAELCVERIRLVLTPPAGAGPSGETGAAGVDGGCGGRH
Format: biochemical
In short: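 Full-length human HSL carrying a C-terminal His6 tag was expressed in High 5 insect cells via baculovirus and purified on Ni-NTA. Compounds from 3-fold DMSO series were mixed with 1.5 mM DMPT substrate suspension in 100 mM MOPS pH 7.2 with 0.2 mg/ml fatty acid-free BSA, then enzyme (15 ug/ml) was added for 20 minutes at 37 °C. Released thiol was detected with DTNB plus SDS/Triton X-100 (15 minutes, room temperature) at 405 nm.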

IC50	Compound
0.33 µM	CC(C)(C)CS(=O)(=O)N1CCC(O)(C(=O)Nc2ccc(OC(F)(F)F)cc2)CC1 [Example 55, 1-(2,2-Dimethyl-propane-1-sulfonyl)-4-hydroxy-piperidine-4-carboxylic acid (4-trifluoromethoxy-phenyl)-amide]
0.22 µM	Cc1ccc(S(=O)(=O)N2CCC(O)(C(=O)Nc3ccc(OC(F)(F)F)cc3)CC2)cc1 [Example 60, 4-Hydroxy-1-(toluene-4-sulfonyl)-piperidine-4-carboxylic acid (4-trifluoromethoxy-phenyl)-amide]
0.46 µM	O=C(c1ccccc1Cl)N1CCC(O)(C(=O)Nc2ccc(OC(F)(F)F)cc2)CC1 [Example 56, 1-(2-Chloro-benzoyl)-4-hydroxy-piperidine-4-carboxylic acid (4-trifluoromethoxy-phenyl)-amide]
0.05 µM	Cc1ccc(S(=O)(=O)N2CCC(N)(C(=O)Nc3ccc(C(C)(C)C)cc3)CC2)cc1 [Example 77, 4-Amino-1-(toluene-4-sulfonyl)-piperidine-4-carboxylic acid (4-tert-butyl-phenyl)-amide; hydrochloride]
0.18 µM	CCc1ccc(NC(=O)C2(N)CCN(Cc3ccccc3C(F)(F)F)CC2)cc1 [Example 157, 4-Amino-1-(2-trifluoromethyl-benzyl)-piperidine-4-carboxylic acid (4-ethyl-phenyl)-amide]
0.09 µM	CCc1ccc(NC(=O)C2(N)CCN(S(=O)(=O)c3ccccc3)CC2)cc1 [Example 133, 4-Amino-1-benzenesulfonyl-piperidine-4-carboxylic acid (4-ethyl-phenyl)-amide]
0.53 µM	COC1(C(=O)Nc2ccc(C(C)(C)C)cc2)CCN(S(=O)(=O)c2ccccc2Cl)CC1 [Example 76, 1-(2-Chloro-benzenesulfonyl)-4-methoxy-piperidine-4-carboxylic acid (4-tert-butyl-phenyl)-amide]
0.2 µM	Cc1ccc(S(=O)(=O)N2CCC(O)(C(=O)Nc3ccc(C(C)(C)C)cc3)CC2)cc1 [Example 16, 4-Hydroxy-1-(toluene-4-sulfonyl)-piperidine-4-carboxylic acid (4-tert-butyl-phenyl)-amide]
0.08 µM	CC(C)(C)c1ccc(NC(=O)C2(O)CCN(Cc3ccccc3Cl)CC2)cc1 [Example 44]
0.46 µM	CCc1ccc(NC(=O)C2(N)CCN(C(=O)OCc3ccccc3)CC2)cc1 [Example 132, 4-Amino-4-(4-ethyl-phenylcarbamoyl)-piperidine-1-carboxylic acid benzyl ester]
0.11 µM	CC(C)(C)c1ccc(NC(=O)C2(O)CCN(Cc3ccccc3OC(F)(F)F)CC2)cc1 [Example 48, 4-Hydroxy-1-(2-trifluoromethoxy-benzyl)-piperidine-4-carboxylic acid (4-tert-butyl-phenyl)-amide]
0.54 µM	CCc1ccc(NC(=O)C2(N)CCN(Cc3ccccc3)CC2)cc1 [Example 151, 4-Amino-1-benzyl-piperidine-4-carboxylic acid (4-ethyl-phenyl)-amide]
0.14 µM	CCc1ccc(NC(=O)C2(N)CCN(S(=O)(=O)c3ccccc3OC)CC2)cc1 [Example 137, 4-Amino-1-(2-methoxy-benzenesulfonyl)-piperidine-4-carboxylic acid (4-ethyl-phenyl)-amide]
0.1 µM	CN(C(=O)C1(O)CCN(S(=O)(=O)c2ccccc2C(F)(F)F)CC1)c1ccc(OC(F)(F)F)cc1 [Example 73, 4-Hydroxy-1-(2-trifluoromethyl-benzenesulfonyl)-piperidine-4-carboxylic acid methyl-(4-trifluoromethoxy-phenyl)-amide]
0.78 µM	NC1(C(=O)Nc2ccc(F)cc2)CCN(S(=O)(=O)c2ccccc2Cl)CC1 [Example 94, 4-Amino-1-(2-chloro-benzenesulfonyl)-piperidine-4-carboxylic acid (4-fluoro-phenyl)-amide]
0.95 µM	O=C(Nc1ccc(F)cc1)N1CCC(O)(C(=O)Nc2ccc(OC(F)(F)F)cc2)CC1 [Example 52, 4-Hydroxy-piperidine-1,4-dicarboxylic acid 1-[(4-fluoro-phenyl)-amide] 4-[(4-trifluoromethoxy-phenyl)-amide]]

IC50	Compound
0.61 µM	CCc1ccc(NC(=O)C2(N)CCN(S(=O)(=O)c3ccc(Cl)nc3)CC2)cc1 [Example 148, 4-Amino-1-(6-chloro-pyridine-3-sulfonyl)-piperidine-4-carboxylic acid (4-ethyl-phenyl)-amide]
0.12 µM	CCc1ccc(NC(=O)C2(N)CCN(S(=O)(=O)c3ccc(C)cc3)CC2)cc1 [Example 81, 4-Amino-1-(toluene-4-sulfonyl)-piperidine-4-carboxylic acid (4-ethyl-phenyl)-amide]
0.2 µM	COc1ccc(S(=O)(=O)N2CCC(O)(C(=O)Nc3ccc(C(C)C)cc3)CC2)cc1 [Example 8, 4-Hydroxy-1-(4-methoxy-benzenesulfonyl)-piperidine-4-carboxylic acid (4-isopropyl-phenyl)-amide]
0.79 µM	O=C(CC1CCCC1)N1CCC(O)(C(=O)Nc2ccc(OC(F)(F)F)cc2)CC1 [Example 53, 1-(2-Cyclopentyl-acetyl)-4-hydroxy-piperidine-4-carboxylic acid (4-trifluoromethoxy-phenyl)-amide]
0.87 µM	O=C(Nc1ccc(OC(F)(F)F)cc1)C1(O)CCN(S(=O)(=O)CCC(F)(F)F)CC1 [Example 62, 4-Hydroxy-1-(3,3,3-trifluoro-propane-1-sulfonyl)-piperidine-4-carboxylic acid (4-trifluoromethoxy-phenyl)-amide]
0.17 µM	COc1ccc(S(=O)(=O)N2CCC(O)(C(=O)Nc3ccc(C(C)(C)C)cc3)CC2)cc1 [Example 19, 4-Hydroxy-1-(4-methoxy-benzenesulfonyl)-piperidine-4-carboxylic acid (4-tert-butyl-phenyl)-amide]
0.21 µM	CC(C)c1ccc(NC(=O)C2(O)CCN(C(=O)Nc3ccc(C(F)(F)F)cc3)CC2)cc1 [Example 6, 4-Hydroxy-piperidine-1,4-dicarboxylic acid 4-[(4-isopropyl-phenyl)-amide] 1-[(4-trifluoromethyl-phenyl)-amide]]
0.53 µM	CCCCS(=O)(=O)N1CCC(N)(C(=O)Nc2ccc(CC)cc2)CC1 [Example 143, 4-Amino-1-(butane-1-sulfonyl)-piperidine-4-carboxylic acid (4-ethyl-phenyl)-amide]
0.12 µM	CC(C)c1ccc(NC(=O)C2(N)CCN(C(=O)Nc3ccc(OC(F)(F)F)cc3)CC2)cc1 [Example 85, 4-Amino-piperidine-1,4-dicarboxylic acid 4-[(4-isopropyl-phenyl)-amide]1-[(4-trifluoromethoxy-phenyl)-amide]; hydrochloride]
0.08 µM	CC(C)c1ccc(NC(=O)C2(N)CCN(Cc3ccccc3Cl)CC2)cc1 [Example 110, 4-Amino-1-(2-chloro-benzyl)-piperidine-4-carboxylic acid (4-isopropyl-phenyl)-amide; hydrochloride]
0.03 µM	NC1(C(=O)Nc2ccc(OC(F)(F)F)cc2)CCN(S(=O)(=O)c2ccccc2Cl)CC1 [Example 103, 4-Amino-1-(2-chloro-benzenesulfonyl)-piperidine-4-carboxylic acid (4-trifluoromethoxy-phenyl)-amide]
0.23 µM	CC(C)CS(=O)(=O)N1CCC(N)(C(=O)Nc2ccc(C(C)C)cc2)CC1 [Example 120, 4-Amino-1-(2-methyl-propane-1-sulfonyl)-piperidine-4-carboxylic acid (4-isopropyl-phenyl)-amide; hydrochloride]
0.27 µM	CC(C)c1ccc(NC(=O)C2(O)CCN(Cc3ccc(F)cc3)CC2)cc1 [Example 2, 1-(4-Fluoro-benzyl)-4-hydroxy-piperidine-4-carboxylic acid (4-isopropyl-phenyl)-amide]
0.09 µM	CC(C)c1ccc(NC(=O)C2(O)CCN(S(=O)(=O)c3ccccc3Cl)CC2)cc1 [Example 7, 1-(2-Chloro-benzenesulfonyl)-4-hydroxy-piperidine-4-carboxylic acid (4-isopropyl-phenyl)-amide]
0.06 µM	CCc1ccc(NC(=O)C2(N)CCN(S(=O)(=O)c3ccccc3F)CC2)cc1 [Example 134, 4-Amino-1-(2-fluoro-benzenesulfonyl)-piperidine-4-carboxylic acid (4-ethyl-phenyl)-amide]
